# According to PMC8658795 (2021):
# System: DNA duplex (DNA, duplex) CAATCGGATCGAATTCGATCCGATTG
# Experiment: fluorescent intercalator displacement
# Conditions: K+ (50 mM KCl, 10 mM KH2PO4); 1 mM K2EDTA, pH 7.4, room temperature; thiazole orange 0.5 μM displaced (Kf 3 × 10^6 M^-1); duplex 0.25 μM
row,Compound,Kb
1,NN1C(=O)c2c(c3c4ccccc4n([C@@H]4OC[C@H](O)[C@H](O)[C@H]4O)c3c3[nH]c4ccccc4c23)C1=O,(1.24 ± 0.07) × 10^6 M^-1
2,O=C(NN1C(=O)c2c(c3c4ccccc4n([C@H]4OC[C@@H](O)[C@H](O)[C@H]4O)c3c3[nH]c4ccccc4c23)C1=O)c1ccccn1,(2.52 ± 0.4) × 10^5 M^-1
